From publication PMC10485820 (European Journal of Pharmaceutical Sciences, 2023)

Experiments:
[1] = biological target: T1, OAT3 (Homo sapiens, UniProt Q8TCC7); assay: Preclinical transporter substrate assessment (unpublished); format: in vitro ADME
T1 sequence (Q8TCC7 1-542): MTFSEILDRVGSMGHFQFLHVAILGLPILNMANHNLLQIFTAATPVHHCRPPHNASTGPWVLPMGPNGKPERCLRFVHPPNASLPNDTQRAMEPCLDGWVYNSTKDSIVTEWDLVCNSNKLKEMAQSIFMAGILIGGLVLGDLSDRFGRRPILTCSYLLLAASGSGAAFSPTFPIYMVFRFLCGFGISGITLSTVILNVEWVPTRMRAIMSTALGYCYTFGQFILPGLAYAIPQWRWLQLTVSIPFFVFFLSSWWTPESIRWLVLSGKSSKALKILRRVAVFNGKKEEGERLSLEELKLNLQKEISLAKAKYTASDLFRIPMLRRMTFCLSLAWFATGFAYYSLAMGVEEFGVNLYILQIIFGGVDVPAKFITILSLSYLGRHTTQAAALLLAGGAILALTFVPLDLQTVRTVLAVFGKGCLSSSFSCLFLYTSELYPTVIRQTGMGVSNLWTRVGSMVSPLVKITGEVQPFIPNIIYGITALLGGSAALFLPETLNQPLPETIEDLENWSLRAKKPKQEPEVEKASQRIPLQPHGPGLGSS

[2] = Bioavailability in rats (unpublished); settings: rat, in vivo, oral
[3] = Particle size distribution of the API (laser diffraction); format: physicochemical; settings: dry method
Method: The determination was performed in a dry method with a Scirocco dry powder feeder, and the air was used as the dispersion agent ([Tari et al., 2015]). Meanwhile, the analysis results, d (0.1), d (0.5) and d (0.9) (defined as the diameter where 10%, 50% and 90% of population lies below this value), were directly output.

[4] = Single ascending dose clinical study in Chinese healthy volunteers (CTR20180791): pharmacokinetics; format: in vivo, human; settings: for AUC / Cmax / clearance / Vd/F: human, in vivo, oral, Chinese healthy volunteers; for clearance: read-out: CL Obs (converted); for Vd/F: read-out: VZ/F Obs
[5] = Blood-to-plasma partition ratio and fraction unbound in plasma; format: in vitro ADME; settings: Measured (in vivo)
From the text: The development of the DLM was complex.

[6] = Drug-drug interaction study of HSK7653 with metformin, multiple doses, Chinese healthy volunteers (CTR20191549): pharmacokinetics; settings: human, in vivo, oral, Multiple dose (D1 35 mg; D8/D15/D22 25 mg) with metformin, fasted
[7] = 10 mg, 10 mg single dose, fasted
[8] = 25 mg, 25 mg single dose, fasted
[9] = 50 mg, 50 mg single dose, fasted
[10] = 100 mg, 100 mg single dose, fasted
[11] = 150 mg, 150 mg single dose, fasted

Transporter substrate assessment [1]: not a common transport substrate | bioavailability [2]: 94.5% | d (0.1) [3]: 1.313 μm | d (0.5) [3]: 3.288 μm | d (0.9) [3]: 8.163 μm | Increase in AUC under the fed state compared with the fasted state ([4]; clinical study): 3% | AUC ([4]; 5 mg, 5 mg single dose, fasted): 8980 ng·h/mL | Cmax ([4]; 5 mg, 5 mg single dose, fasted): 101 ng/mL | clearance ([4]; 5 mg, 5 mg single dose, fasted): 9.67 mL/min | Vd/F ([4]; 5 mg, 5 mg single dose, fasted): 1.65 L/kg | AUC [4, 7]: 17700 ng·h/mL | Cmax [4, 7]: 237 ng/mL | clearance [4, 7]: 9.67 mL/min | Vd/F [4, 7]: 1.71 L/kg | AUC [4, 8]: 40500 ng·h/mL | Cmax [4, 8]: 413 ng/mL | clearance [4, 8]: 10.2 mL/min | Vd/F [4, 8]: 1.52 L/kg | AUC [4, 9]: 90400 ng·h/mL | Cmax [4, 9]: 981 ng/mL | clearance [4, 9]: 9.67 mL/min | Vd/F [4, 9]: 1.26 L/kg | AUC ([4]; 50 mg, 50 mg single dose, fed): 92900 ng·h/mL | Cmax ([4]; 50 mg, 50 mg single dose, fed): 834 ng/mL | clearance ([4]; 50 mg, 50 mg single dose, fed): 9.5 mL/min | Vd/F ([4]; 50 mg, 50 mg single dose, fed): 1.37 L/kg | AUC [4, 10]: 218000 ng·h/mL | Cmax [4, 10]: 2130 ng/mL | clearance [4, 10]: 8.33 mL/min | Vd/F [4, 10]: 1.07 L/kg | AUC [4, 11]: 269000 ng·h/mL | Cmax [4, 11]: 3330 ng/mL | clearance [4, 11]: 11 mL/min | Vd/F [4, 11]: 1.13 L/kg | Dose linearity ([4]; within the currently selected therapeutic dose range): dose linear | fraction unbound [5]: 0.143 | Cmax [6]: 533 ng/mL | clearance ([6]; read-out: CL Obs (converted)): 9.17 mL/min | Vd/F ([6]; read-out: VZ/F Obs): 1.08 L/kg
Compound: CS(=O)(=O)n1cc2c(n1)CN([C@@H]1C[C@H](N)[C@@H](c3cc(F)ccc3F)O[C@@H]1C(F)(F)F)C2 [HSK7653]
